Assays:
[1] = test system: mouse liver; conditions: GeneChip, 1 h after 20 ug/kg IL-1β ip, pretreated 5 days with vehicle or 100 ug/kg/day EE sc, vehicle+PBS=1.0;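 also: ovariectomized C57BL/6 mice, liver polyA RNA profiled, values are fold expression relative to vehicle plus PBS, averaged over two independent experiments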
Procedure: Experiments were conducted to evaluate IL-1β regulation of gene expression in the mouse liver. Ovariectomized C57BL/6 mice were pretreated by subcutaneous administration of either corn oil/ethanol vehicle or 100 ug/kg/day ethynylestradiol (EE) for 5 days. On the fifth day, the mice received an intraperitoneal injection of either PBS or 20 ug/kg IL-1β in PBS. One hour later the livers were removed and polyA RNA was prepared. Global gene expression was determined by analysis using murine 11K GeneChips from Affymetrix. For each gene, the level of expression in animals receiving vehicle pretreatment plus PBS was defined as 1.0, with the expression levels in the mice receiving vehicle pretreatment±IL-1β or EE pretreatment±IL-1β defined relative to this. The results shown are the mean from two independent experiments.
The fold regulation of each gene is plotted for animals receiving vehicle pretreatment x-axis) vs. animals receiving pretreatment with EE (y-axis). Genes with IL-1β induction unaffected by EE pretreatment would lie along the dotted diagonal.

[2] = test system: mouse liver; assay: EE induction of gene expression in the mouse liver (GeneChip); format: in vivo; conditions: 100 ug/kg/day EE sc 5 days;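 also: ovariectomized C57BL/6 mice, liver polyA RNA on Affymetrix murine 11K GeneChips, fold expression versus vehicle-pretreated PBS-injected mice set to 1.0, mean of two independent experiments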
Procedure: Ovariectomized C57BL/6 mice were pretreated by subcutaneous administration of either corn oil/ethanol vehicle or 100 ug/kg/day ethynylestradiol (EE) for 5 days. […] One hour later the livers were removed and polyA RNA was prepared. Global gene expression was determined by analysis using murine 11K GeneChips from Affymetrix. For each gene, the level of expression in animals receiving vehicle pretreatment plus PBS was defined as 1.0, with the expression levels in the mice receiving vehicle pretreatment±IL-1β or EE pretreatment±IL-1β defined relative to this. The results shown are the mean from two independent experiments.
To determine whether EE induction of any other gene could explain the inhibition of IL-1β gene inductions, the GeneChip results were analyzed for EE induction of gene expression.

## C#C[C@]1(O)CC[C@H]2[C@@H]3CCc4cc(O)ccc4[C@H]3CC[C@@]21C [EE, ethynylestradiol]
[1]
  IL-1 Induction heme oxygenase 1 (Hmox1): 3.0 fold
  IL-1 Induction hsp68 (Hsp70-3): 1.5 fold
  IL-1 Induction inducible 6-phosphofructo-2-kinase (AA163244): 3.0 fold
  IL-1 Induction inhibitor of DNA binding 3 (idb3): 3.1 fold
  IL-1 Induction insulin-like growth factor binding protein 1 (lgfbp1): 4.3 fold
  IL-1 Induction intercrine (Scya7): 11.4 fold
  IL-1 Induction interferon regulatory factor 1 (Irf1): 9.0 fold
  IL-1 Induction junB (Junb): 2.6 fold
  IL-1 Induction lipocalin 2 (Lcn2): 2.9 fold
  IL-1 Induction lkB-beta (Nfkbib): 2.8 fold
  IL-1 Induction m-myc (Myc): 3.4 fold
  IL-1 Induction macrophage interferon inducible protein 10 (Scyb10): 39.3 fold
  IL-1 Induction metalloproteinase-disintegrin (Adamts1): 4.6 fold
  IL-1 Induction molecule possessing ankyrin-repeats induced by LPS (aa614971): 22.7 fold
  IL-1 Induction myocyte-enriched calcineurin interactin protein (Dscrl): 9.3 fold
  IL-1 Induction noctumin (Ccr4): 9.0 fold
  IL-1 Induction p65 NF-kappa B (Rela): 2.4 fold
  IL-1 Induction phospholipid scramblase 1 (Plscr1): 5.6 fold
  IL-1 Induction protein tyrosine phosphatase 4a1 (Ptp4a1): 1.2 fold
  IL-1 Induction regulator for ribosome resistance homolog (Rrr): 3.3 fold
  IL-1 Induction relB (Relb): 7.9 fold
  IL-1 Induction rhoB (Arhb): 18.5 fold
  IL-1 Induction serum amyloid A 3 (Saa3): 36.0 fold
  IL-1 Induction serum amyloid A 4 (Saa4): 1.9 fold
  IL-1 Induction suppressor of cytokine signaling 2 (Cish2): 1.7 fold
  IL-1 Induction suppressor of cytokine signaling 3 (Cish3): 6.0 fold
  IL-1 Induction transglutaminase (Tgm2): 8.0 fold
[2]
  EE Induction C1Qc (C1qc): 2.3
  EE Induction C1qB (C1qb): 2.8
  EE Induction CD53 (Cd53): 2.9
  EE Induction CD68 antigen (Cd68): 3.1
  EE Induction CD97 (Cd97): 6.0
  EE Induction Cytochrome P450, 17 (Cyp17): 32.3
  EE Induction F4/80 (Emr1): 3.1
  EE Induction H2A histone family, member X (H2afx): 5.1
  EE Induction Keratin complex 2, basic, gene 4 (Krt2-4): 38.0
  EE Induction apolipoprotein A-IV (Apoa4): 3.5
  EE Induction apolipoprotein C2 (Apoc2): 2.2
  EE Induction apoptosis inhibitory 6 (Api6): 3.3
  EE Induction cadherin 1 (Cdh1): 2.6
  EE Induction cathepsin S (Ctss): 4.0
  EE Induction cell division cycle 2 homolog A (Cdc2a): 4.6
  EE Induction colony stimulating factor 1 receptor (Csf1r): 2.8
  EE Induction creatine kinase B (Ckb): 13.0
  EE Induction cytochrome P450, 7b1 (Cyp7b1): 21.1
  EE Induction desmocollin 2 (Dsc2): 5.0
  EE Induction fatty acid binding protein 7, brain (Fabp7): 4.8
  EE Induction interferon activated gene 203 (lfi203): 2.5
  EE Induction interleukin 17 receptor (Il17r): 3.5
  EE Induction leukemia inhibitory factor receptor (Lifr): 5.1
  EE Induction lymphocyte antigen 86 (Ly86): 4.3
  EE Induction lysosomal thiol reductase IP30 precursor (IP30): 3.7
  EE Induction mannose receptor, C type 1 (Mrc1): 2.6
  EE Induction myo-inositol-1-phosphate synthase (aa221219): 167.1
  EE Induction properdin (Pfc): 2.9
  EE Induction prostaglandin D2 synthase (Ptgds): 72.8
  EE Induction proteinase 3 (Prtn3): 24.1
  EE Induction pyrroline-5-carboxylate synthetase (Pycs): 3.3
  EE Induction serum/glucocorticoid regulated kinase (Sgk): 4.5
  EE Induction signal transducer and activator of transcription 5A (Stat5a): 4.1
  EE Induction solute carrier family 11, member 1 (Slc11a1): 3.6
  EE Induction stathmin (Kist): 3.5
  EE Induction testosterone 16-alpha-hydroxylase (C-16-alpha) (Cyp2d9): 2.3
  EE Induction trefoil factor 3, intestinal (Tff3): 16.3
  EE Induction type llb Na/phosphate-cotransporter (Npt2b): 13.5
